Reference: the NIST ThermoML archive (doi:10.1021/acs.jced.7b01030)
Several values for one entry are separate records, joined by “and”; a condition that tells them apart may be missing. Identical values can stand only once. ± gives the expanded uncertainty stated by the source.

Conditions: Liquid; for mass density: Vibrating tube method; for viscosity: Falling or rolling sphere viscometry; for self diffusion coefficient: NMR spin-echo technique

OCC(F)(F)F [2,2,2-trifluoroethanol]
Conditions | mass density [kg/m3] | self diffusion coefficient | viscosity
303.15 K, 100 kPa | 1374.17 ± 0.63 | – | –
308.15 K, 100 kPa | – | – | 1.384 ± 0.057 mPa·s
308.28 K, 100 kPa | – | 9.35e-10 m2/s | –
313.15 K, 100 kPa | 1356.64 ± 0.63 | – | 1.219 ± 0.05 mPa·s and 1.221 ± 0.05 mPa·s
318.15 K, 100 kPa | – | – | 1.081 ± 0.044 mPa·s and 1.078 ± 0.044 mPa·s
318.17 K, 100 kPa | – | 1.24e-09 m2/s and 1.22e-09 m2/s | –
322.14 K, 10500 kPa | – | – | 1.125 ± 0.046 mPa·s and 1.128 ± 0.046 mPa·s
322.14 K, 25500 kPa | – | – | 1.286 ± 0.052 mPa·s
322.14 K, 50500 kPa | – | – | 1.561 ± 0.064 mPa·s
322.14 K, 75000 kPa | – | – | 1.827 ± 0.074 mPa·s
322.14 K, 75200 kPa | – | – | 1.828 ± 0.074 mPa·s
322.14 K, 100300 kPa | – | – | 2.137 ± 0.087 mPa·s
323.15 K, 100 kPa | 1338.58 ± 0.63 | – | 0.989 ± 0.04 mPa·s [middle of 9 runs]
323.15 K, 10000 kPa | – | – | 1.091 ± 0.045 mPa·s
323.15 K, 10100 kPa | – | – | 1.09 ± 0.045 mPa·s
323.15 K, 25300 kPa | – | – | 1.246 ± 0.051 mPa·s
323.15 K, 25400 kPa | – | – | 1.248 ± 0.051 mPa·s
323.15 K, 49500 kPa | – | – | 1.492 ± 0.061 mPa·s
323.15 K, 49700 kPa | – | – | 1.493 ± 0.061 mPa·s
323.15 K, 74800 kPa | – | – | 1.781 ± 0.073 mPa·s
323.15 K, 75000 kPa | – | – | 1.789 ± 0.073 mPa·s
323.15 K, 99900 kPa | – | – | 2.075 ± 0.086 mPa·s
323.15 K, 100000 kPa | – | – | 2.073 ± 0.084 mPa·s
323.15 K, 100400 kPa | – | – | 2.096 ± 0.087 mPa·s and 2.093 ± 0.086 mPa·s
323.15 K, 125000 kPa | – | – | 2.396 ± 0.098 mPa·s
323.15 K, 125400 kPa | – | – | 2.395 ± 0.098 mPa·s
323.15 K, 150100 kPa | – | – | 2.737 ± 0.11 mPa·s
323.15 K, 150500 kPa | – | – | 2.738 ± 0.11 mPa·s
323.15 K, 176000 kPa | – | – | 3.131 ± 0.13 mPa·s
323.15 K, 200300 kPa | – | – | 3.654 ± 0.16 mPa·s
323.15 K, 200800 kPa | – | – | 3.651 ± 0.39 mPa·s
323.15 K, 210100 kPa | – | – | 3.837 ± 0.16 mPa·s and 3.849 ± 0.16 mPa·s
323.15 K, 225200 kPa | – | – | 4.134 ± 0.27 mPa·s
323.15 K, 225300 kPa | – | – | 4.131 ± 0.24 mPa·s
323.15 K, 226700 kPa | – | – | 4.028 ± 0.2 mPa·s
323.15 K, 227900 kPa | – | – | 4.058 ± 0.28 mPa·s
323.15 K, 248900 kPa | – | – | 4.6 ± 0.24 mPa·s
323.15 K, 249400 kPa | – | – | 4.614 ± 0.24 mPa·s
323.15 K, 275300 kPa | – | – | 5.192 ± 0.21 mPa·s
323.15 K, 275600 kPa | – | – | 5.209 ± 0.21 mPa·s
323.15 K, 300600 kPa | – | – | 5.834 ± 0.78 mPa·s
323.15 K, 301200 kPa | – | – | 5.853 ± 0.82 mPa·s
323.15 K, 325600 kPa | – | – | 6.509 ± 0.9 mPa·s
323.15 K, 326200 kPa | – | – | 6.562 ± 0.51 mPa·s
323.15 K, 347900 kPa | – | – | 7.187 ± 0.56 mPa·s
323.15 K, 349200 kPa | – | – | 7.207 ± 0.56 mPa·s
323.4 K, 100 kPa | – | 1.45e-09 m2/s | –
323.5 K, 100 kPa | – | 1.39e-09 m2/s | –
323.51 K, 100 kPa | – | 1.42e-09 m2/s | –
323.51 K, 23000 kPa | – | 1.21e-09 m2/s | –
323.51 K, 50000 kPa | – | 1.01e-09 m2/s | –
323.51 K, 74000 kPa | – | 8.73e-10 m2/s | –
323.51 K, 99500 kPa | – | 7.59e-10 m2/s | –
323.51 K, 300000 kPa | – | 3.12e-10 m2/s | –
323.52 K, 150000 kPa | – | 5.97e-10 m2/s | –
323.52 K, 198500 kPa | – | 4.81e-10 m2/s | –
323.52 K, 249000 kPa | – | 3.9e-10 m2/s | –
323.53 K, 351000 kPa | – | 2.57e-10 m2/s | –
328.15 K, 100 kPa | – | – | 0.8939 ± 0.037 mPa·s and 0.8974 ± 0.037 mPa·s
328.35 K, 100 kPa | – | 1.63e-09 m2/s | –
333.15 K, 100 kPa | 1319.81 ± 0.62 | – | 0.8117 ± 0.033 mPa·s
338.15 K, 100 kPa | 1310.14 ± 0.62 | – | 0.7379 ± 0.03 mPa·s and 0.7382 ± 0.03 mPa·s
338.44 K, 100 kPa | – | 1.95e-09 m2/s | –
342.8 K, 100 kPa | – | 2.21e-09 m2/s | –
343.15 K, 100 kPa | 1300.26 ± 0.62 | – | 0.671 ± 0.028 mPa·s [middle of 5 runs]
343.15 K, 10500 kPa | – | – | 0.7504 ± 0.031 mPa·s and 0.7498 ± 0.031 mPa·s
343.15 K, 25500 kPa | – | – | 0.8438 ± 0.034 mPa·s
343.15 K, 50000 kPa | – | – | 1.016 ± 0.041 mPa·s
343.15 K, 76400 kPa | – | – | 1.229 ± 0.05 mPa·s and 1.228 ± 0.05 mPa·s
343.15 K, 99900 kPa | – | – | 1.425 ± 0.058 mPa·s
343.15 K, 100500 kPa | – | – | 1.411 ± 0.058 mPa·s
343.15 K, 100700 kPa | – | – | 1.419 ± 0.058 mPa·s and 1.416 ± 0.058 mPa·s
343.15 K, 100900 kPa | – | – | 1.421 ± 0.058 mPa·s
343.15 K, 125800 kPa | – | – | 1.666 ± 0.068 mPa·s
343.15 K, 126100 kPa | – | – | 1.66 ± 0.068 mPa·s
343.15 K, 150000 kPa | – | – | 1.894 ± 0.077 mPa·s
343.15 K, 150200 kPa | – | – | 1.899 ± 0.077 mPa·s
343.15 K, 175300 kPa | – | – | 2.141 ± 0.087 mPa·s
343.15 K, 175600 kPa | – | – | 2.149 ± 0.087 mPa·s
343.15 K, 200400 kPa | – | – | 2.397 ± 0.098 mPa·s
343.15 K, 200700 kPa | – | – | 2.409 ± 0.098 mPa·s
343.15 K, 225200 kPa | – | – | 2.644 ± 0.11 mPa·s
343.15 K, 225400 kPa | – | – | 2.672 ± 0.11 mPa·s
343.15 K, 249500 kPa | – | – | 2.924 ± 0.12 mPa·s
343.15 K, 249800 kPa | – | – | 2.935 ± 0.12 mPa·s
343.15 K, 276600 kPa | – | – | 3.259 ± 0.13 mPa·s
343.15 K, 277100 kPa | – | – | 3.277 ± 0.13 mPa·s
343.15 K, 300300 kPa | – | – | 3.57 ± 0.15 mPa·s
343.15 K, 301200 kPa | – | – | 3.596 ± 0.15 mPa·s
343.15 K, 325100 kPa | – | – | 3.91 ± 0.16 mPa·s
343.15 K, 325600 kPa | – | – | 3.939 ± 0.16 mPa·s
343.15 K, 350100 kPa | – | – | 4.306 ± 0.18 mPa·s
343.15 K, 352100 kPa | – | – | 4.376 ± 0.18 mPa·s
348.02 K, 152000 kPa | – | 1.06e-09 m2/s | –
348.06 K, 25000 kPa | – | 2.11e-09 m2/s | –
348.06 K, 101000 kPa | – | 1.35e-09 m2/s | –
348.07 K, 100 kPa | – | 2.57e-09 m2/s | –
348.07 K, 50500 kPa | – | 1.79e-09 m2/s | –
348.07 K, 74500 kPa | – | 1.57e-09 m2/s | –
348.07 K, 348000 kPa | – | 5.2e-10 m2/s | –
348.08 K, 175000 kPa | – | 9.55e-10 m2/s | –
348.08 K, 200000 kPa | – | 8.68e-10 m2/s | –
348.08 K, 249500 kPa | – | 7.32e-10 m2/s | –
348.08 K, 299000 kPa | – | 6.15e-10 m2/s | –
348.08 K, 350000 kPa | – | 5.16e-10 m2/s | –
